# The supplement of paper PMC10307832
# Columns and labels:
# Experiment in all cases: relative viability (nuclei count vs DMSO), 5 days (fraction); higher = more cells survive
# [1] = compound: Cn1nnc2c(C(N)=O)ncn2c1=O [Temozolomide] + CC(=O)Nc1cccc(-n2c(=O)n(C3CC3)c(=O)c3c(Nc4ccc(I)cc4F)n(C)c(=O)c(C)c32)c1 [Trametinib] (partner 0.02 µM)
# Procedure, shortened: (§1)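 Dosing by pin tool came one day after lung cancer cell lines were seeded in 1536-well plates, using either one drug or a fixed anchor-drug dose plus five library-drug doses (not always all listed) in √10 steps. After 5 days, nuclei were counted on 4× images. Relative viability is treated-well nuclei count divided by vehicle-well nuclei count, and values are medians of duplicate plates.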
# [2] = compound: Cn1nnc2c(C(N)=O)ncn2c1=O [Temozolomide] + CS(=O)(=O)N1CCN(Cc2cc3nc(-c4cccc5[nH]ncc45)nc(N4CCOCC4)c3s2)CC1 [Pictilisib] (partner 1 µM)
# Procedure, shortened: as §1
# AZD5582 + Palbociclib = compound: C[C@@H](C(=O)N[C@@H](C1CCCCC1)C(=O)N2CCC[C@H]2C(=O)N[C@@H]3[C@@H](CC4=CC=CC=C34)OCC#CC#CCO[C@@H]5CC6=CC=CC=C6[C@@H]5NC(=O)[C@@H]7CCCN7C(=O)[C@H](C8CCCCC8)NC(=O)[C@H](C)NC)NC [AZD5582] + CC(=O)c1c(C)c2cnc(Nc3ccc(N4CCNCC4)cn3)nc2n(C2CCCC2)c1=O [Palbociclib] (partner 0.5 µM)
# Procedure, shortened: as §1
# [3] = compound: Cn1nnc2c(C(N)=O)ncn2c1=O [Temozolomide] + CC(=O)c1c(C)c2cnc(Nc3ccc(N4CCNCC4)cn3)nc2n(C2CCCC2)c1=O [Palbociclib] (partner 0.5 µM)
# Procedure, shortened: as §1
Cell Line,relative viability ([1]; first compound 0.2 µM),relative viability ([1]; first compound 0.6325 µM),relative viability ([1]; first compound 2 µM),relative viability ([1]; first compound 6.325 µM),relative viability ([1]; first compound 20 µM),relative viability ([2]; first compound 0.2 µM),relative viability ([2]; first compound 0.6325 µM),relative viability ([2]; first compound 2 µM),relative viability ([2]; first compound 6.325 µM),relative viability ([2]; first compound 20 µM),relative viability (AZD5582 + Palbociclib; first compound 0.001581 µM),relative viability (AZD5582 + Palbociclib; first compound 0.005 µM),relative viability (AZD5582 + Palbociclib; first compound 0.01581 µM),relative viability (AZD5582 + Palbociclib; first compound 0.05 µM),relative viability ([3]; first compound 0.2 µM),relative viability ([3]; first compound 0.6325 µM),relative viability ([3]; first compound 2 µM),relative viability ([3]; first compound 6.325 µM),relative viability ([3]; first compound 20 µM)
NCI-H2228,0.286,0.617,0.432,0.459,0.537,0.354,0.36,0.227,0.234,0.47,0.674,0.706,0.84,0.127,0.918,1.03,0.809,0.798,0.614
NCI-H2347,0.26,0.291,0.28,0.289,0.244,0.624,0.863,0.861,0.649,0.502,0.43,0.392,0.447,0.416,0.442,0.473,0.388,0.408,0.474
NCI-H2405,0.585,0.699,0.798,0.569,0.597,0.392,0.434,0.487,0.338,0.465,0.474,0.505,0.475,0.433,0.442,0.576,0.518,0.5,0.508
NCI-H3122,0.222,0.291,0.246,0.251,0.242,0.521,0.657,0.59,0.57,0.553,0.197,0.185,0.181,0.143,0.206,0.202,0.175,0.174,0.153
PC-3 [JPC-3],0.547,0.769,0.821,0.724,0.433,0.71,0.775,0.798,0.774,0.296,0.483,0.512,0.58,0.478,0.541,0.554,0.543,0.545,0.433
PC-14,0.96,0.766,0.758,0.813,0.585,0.834,0.791,0.737,0.614,0.0773,0.401,0.322,0.47,0.34,0.706,0.515,0.472,0.527,0.415
RERF-LC-KJ,0.788,0.815,0.763,0.845,0.826,0.625,0.564,0.557,0.501,0.467,0.354,0.494,1.03,0.27,1.02,1.1,1.11,1.17,1.02
SK-LU-1,0.534,0.487,0.44,0.382,0.361,0.688,0.62,0.544,0.295,0.281,0.333,0.366,0.331,0.247,0.382,0.397,0.431,0.33,0.318
SK-MES-1,0.656,0.578,0.663,0.539,0.58,0.279,0.362,0.424,0.331,0.282,0.286,0.32,0.332,0.291,0.328,0.312,0.332,0.353,0.332
SW 1573,0.688,0.504,0.56,0.583,0.474,0.595,0.517,0.517,0.483,0.428,0.352,0.451,0.402,0.407,0.502,0.44,0.467,0.4,0.429
UMC-11,0.728,0.749,0.786,0.643,0.519,1.08,0.917,0.893,0.729,0.442,0.345,0.324,0.394,0.339,0.312,0.38,0.3,0.286,0.321
